Experimental data taken from ChEMBL document CHEMBL5465560, “Selectivity Literature for EUbOPEN Chemogenomic Library” (2024).

Assays:
[1] = biological target: Receptor-interacting serine/threonine-protein kinase 2 (Homo sapiens, UniProt O43353); details: at 10 µM
[2] = biological target: Tyrosine-protein kinase ABL2 (Homo sapiens, UniProt P42684); test: Selectivity interaction (ProQinase) EUB0000171b ABL2
[3] = biological target: Ephrin type-A receptor 2 (Homo sapiens) (UniProt P29317); test: Selectivity interaction (ActivX KiNativ screen (kinase selectivity in THP-1 cell lysates)) EUB0000639a EPHA2; type: subcellular; details: lysate
Ephrin type-A receptor 2 (Homo sapiens), sequence (P29317 whole entry): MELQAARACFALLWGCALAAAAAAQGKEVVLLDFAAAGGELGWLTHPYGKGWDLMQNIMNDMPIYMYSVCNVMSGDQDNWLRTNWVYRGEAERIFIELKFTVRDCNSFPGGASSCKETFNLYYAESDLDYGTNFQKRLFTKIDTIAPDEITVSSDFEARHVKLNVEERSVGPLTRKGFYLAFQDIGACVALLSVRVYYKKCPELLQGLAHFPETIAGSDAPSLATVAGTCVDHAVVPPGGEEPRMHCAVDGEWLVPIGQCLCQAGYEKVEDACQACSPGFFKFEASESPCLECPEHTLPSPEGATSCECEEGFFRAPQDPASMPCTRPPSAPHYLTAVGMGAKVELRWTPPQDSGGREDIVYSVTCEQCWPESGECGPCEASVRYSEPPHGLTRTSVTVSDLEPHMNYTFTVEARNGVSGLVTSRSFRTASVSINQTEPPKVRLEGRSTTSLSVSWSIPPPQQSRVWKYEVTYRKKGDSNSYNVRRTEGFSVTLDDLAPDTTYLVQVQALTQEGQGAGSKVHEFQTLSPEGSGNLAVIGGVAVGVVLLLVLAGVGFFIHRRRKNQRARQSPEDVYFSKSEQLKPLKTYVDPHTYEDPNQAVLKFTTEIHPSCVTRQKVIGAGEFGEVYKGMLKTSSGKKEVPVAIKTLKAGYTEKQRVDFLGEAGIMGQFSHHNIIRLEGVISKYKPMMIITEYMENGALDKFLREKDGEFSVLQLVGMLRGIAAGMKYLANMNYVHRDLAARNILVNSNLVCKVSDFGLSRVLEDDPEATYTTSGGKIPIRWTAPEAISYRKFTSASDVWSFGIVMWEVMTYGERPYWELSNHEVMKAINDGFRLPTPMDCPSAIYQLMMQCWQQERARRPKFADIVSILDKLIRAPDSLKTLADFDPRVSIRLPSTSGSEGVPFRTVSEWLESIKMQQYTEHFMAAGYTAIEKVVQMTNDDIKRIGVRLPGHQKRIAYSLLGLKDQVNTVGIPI

[4] = biological target: T1, Diacylglycerol kinase eta (Homo sapiens) (UniProt Q86XP1); test: Selectivity interaction (ActivX KiNativ screen (kinase selectivity in THP-1 cell lysates)) EUB0000639a DGKH; type: subcellular; details: lysate
T1 sequence (whole entry): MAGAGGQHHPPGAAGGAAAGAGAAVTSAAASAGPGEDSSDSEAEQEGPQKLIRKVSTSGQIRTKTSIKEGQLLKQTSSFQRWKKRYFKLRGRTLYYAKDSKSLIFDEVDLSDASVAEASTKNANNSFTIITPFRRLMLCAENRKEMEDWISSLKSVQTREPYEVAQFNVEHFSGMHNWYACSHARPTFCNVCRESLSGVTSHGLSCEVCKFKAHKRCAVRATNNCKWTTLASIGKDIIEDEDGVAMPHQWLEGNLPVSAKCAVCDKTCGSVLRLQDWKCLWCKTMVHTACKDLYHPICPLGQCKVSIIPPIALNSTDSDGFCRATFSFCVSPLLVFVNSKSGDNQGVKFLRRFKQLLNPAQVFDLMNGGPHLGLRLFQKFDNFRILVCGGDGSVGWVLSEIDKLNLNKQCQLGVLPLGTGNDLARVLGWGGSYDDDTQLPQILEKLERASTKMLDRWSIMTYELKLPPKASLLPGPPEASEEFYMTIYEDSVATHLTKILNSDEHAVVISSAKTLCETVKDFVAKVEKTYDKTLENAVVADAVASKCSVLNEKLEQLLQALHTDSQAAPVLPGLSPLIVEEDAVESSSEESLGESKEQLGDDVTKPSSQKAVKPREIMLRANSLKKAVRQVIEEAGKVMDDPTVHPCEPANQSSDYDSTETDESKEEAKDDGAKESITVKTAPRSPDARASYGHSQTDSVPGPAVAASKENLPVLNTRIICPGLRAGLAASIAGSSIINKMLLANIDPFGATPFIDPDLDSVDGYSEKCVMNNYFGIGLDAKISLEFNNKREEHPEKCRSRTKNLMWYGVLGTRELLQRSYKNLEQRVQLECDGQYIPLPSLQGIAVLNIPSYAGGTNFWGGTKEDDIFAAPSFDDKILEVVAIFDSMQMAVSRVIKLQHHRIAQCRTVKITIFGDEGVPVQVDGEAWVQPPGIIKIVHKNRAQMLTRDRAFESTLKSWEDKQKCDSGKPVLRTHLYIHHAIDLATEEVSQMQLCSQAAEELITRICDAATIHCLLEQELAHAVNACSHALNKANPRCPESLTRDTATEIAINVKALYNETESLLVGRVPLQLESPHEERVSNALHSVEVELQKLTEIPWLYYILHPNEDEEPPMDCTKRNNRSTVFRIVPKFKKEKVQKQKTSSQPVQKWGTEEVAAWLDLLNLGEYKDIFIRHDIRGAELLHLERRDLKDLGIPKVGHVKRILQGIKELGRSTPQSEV

[5] = biological target: Platelet-derived growth factor receptor beta (Homo sapiens, UniProt P09619); test: Selectivity interaction (Kinase panel (Invitrogen)) EUB0000639a PDGFRB; details: at 200 nM
Platelet-derived growth factor receptor beta, sequence (P09619 whole entry): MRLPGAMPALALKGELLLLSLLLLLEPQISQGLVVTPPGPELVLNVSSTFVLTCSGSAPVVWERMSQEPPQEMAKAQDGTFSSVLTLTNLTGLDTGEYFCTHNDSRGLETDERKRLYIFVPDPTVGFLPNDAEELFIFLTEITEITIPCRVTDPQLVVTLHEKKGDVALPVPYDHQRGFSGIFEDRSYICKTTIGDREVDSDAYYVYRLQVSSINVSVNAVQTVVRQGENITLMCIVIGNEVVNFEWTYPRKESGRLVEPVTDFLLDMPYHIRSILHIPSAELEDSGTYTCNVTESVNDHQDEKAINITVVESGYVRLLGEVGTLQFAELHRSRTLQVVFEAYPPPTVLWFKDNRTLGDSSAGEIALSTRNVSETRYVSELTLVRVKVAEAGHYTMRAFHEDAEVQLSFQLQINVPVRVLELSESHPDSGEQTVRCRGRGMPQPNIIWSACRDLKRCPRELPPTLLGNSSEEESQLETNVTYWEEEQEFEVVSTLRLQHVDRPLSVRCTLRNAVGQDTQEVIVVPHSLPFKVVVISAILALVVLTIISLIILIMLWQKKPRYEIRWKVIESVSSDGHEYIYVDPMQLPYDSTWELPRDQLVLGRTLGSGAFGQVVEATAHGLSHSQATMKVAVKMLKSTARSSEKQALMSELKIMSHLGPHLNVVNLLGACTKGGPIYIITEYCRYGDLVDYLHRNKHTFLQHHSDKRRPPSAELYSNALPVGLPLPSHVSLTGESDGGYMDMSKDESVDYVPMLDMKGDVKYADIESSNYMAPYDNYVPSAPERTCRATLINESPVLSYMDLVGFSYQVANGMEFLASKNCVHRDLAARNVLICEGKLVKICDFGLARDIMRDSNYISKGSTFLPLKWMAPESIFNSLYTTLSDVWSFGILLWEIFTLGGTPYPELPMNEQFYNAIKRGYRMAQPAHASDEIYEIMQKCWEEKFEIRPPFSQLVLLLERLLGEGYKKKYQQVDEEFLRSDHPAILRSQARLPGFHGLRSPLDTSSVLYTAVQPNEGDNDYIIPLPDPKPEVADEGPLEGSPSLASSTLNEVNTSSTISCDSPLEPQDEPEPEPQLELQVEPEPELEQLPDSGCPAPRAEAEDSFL

[6] = biological target: T2, Bone morphogenetic protein receptor type-2 (Homo sapiens) (UniProt Q13873); test: Selectivity interaction (KinomeScan (DiscoverX)) EUB0000045b BMPR2
T2 sequence (whole entry): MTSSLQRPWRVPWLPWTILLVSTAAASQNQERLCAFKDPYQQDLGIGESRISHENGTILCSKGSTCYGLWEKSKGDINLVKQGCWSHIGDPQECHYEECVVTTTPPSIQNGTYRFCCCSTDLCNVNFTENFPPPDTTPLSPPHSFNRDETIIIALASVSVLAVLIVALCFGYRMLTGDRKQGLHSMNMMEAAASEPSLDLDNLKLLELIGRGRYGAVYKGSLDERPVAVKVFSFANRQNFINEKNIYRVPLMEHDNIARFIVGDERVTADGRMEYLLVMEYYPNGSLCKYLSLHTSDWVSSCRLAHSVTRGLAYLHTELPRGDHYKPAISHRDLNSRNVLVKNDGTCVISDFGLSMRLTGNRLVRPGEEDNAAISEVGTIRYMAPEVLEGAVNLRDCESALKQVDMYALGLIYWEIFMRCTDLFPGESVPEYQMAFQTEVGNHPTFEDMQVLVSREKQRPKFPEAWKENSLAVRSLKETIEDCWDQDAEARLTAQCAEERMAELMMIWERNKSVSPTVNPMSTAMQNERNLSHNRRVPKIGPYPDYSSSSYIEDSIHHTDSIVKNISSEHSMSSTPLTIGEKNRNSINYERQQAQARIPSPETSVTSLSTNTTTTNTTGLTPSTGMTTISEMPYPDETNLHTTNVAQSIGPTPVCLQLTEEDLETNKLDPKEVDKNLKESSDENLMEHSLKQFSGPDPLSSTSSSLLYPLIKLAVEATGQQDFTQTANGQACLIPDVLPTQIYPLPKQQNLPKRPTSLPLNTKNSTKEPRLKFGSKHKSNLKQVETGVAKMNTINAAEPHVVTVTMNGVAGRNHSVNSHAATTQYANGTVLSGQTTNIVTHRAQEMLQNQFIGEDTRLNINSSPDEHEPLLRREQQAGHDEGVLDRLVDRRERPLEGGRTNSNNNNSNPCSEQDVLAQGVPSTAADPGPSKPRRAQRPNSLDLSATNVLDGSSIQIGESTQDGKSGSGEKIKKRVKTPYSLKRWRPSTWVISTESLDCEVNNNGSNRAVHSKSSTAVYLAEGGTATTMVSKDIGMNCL

Tyrosine-protein kinase ABL2, sequence (P42684 whole entry): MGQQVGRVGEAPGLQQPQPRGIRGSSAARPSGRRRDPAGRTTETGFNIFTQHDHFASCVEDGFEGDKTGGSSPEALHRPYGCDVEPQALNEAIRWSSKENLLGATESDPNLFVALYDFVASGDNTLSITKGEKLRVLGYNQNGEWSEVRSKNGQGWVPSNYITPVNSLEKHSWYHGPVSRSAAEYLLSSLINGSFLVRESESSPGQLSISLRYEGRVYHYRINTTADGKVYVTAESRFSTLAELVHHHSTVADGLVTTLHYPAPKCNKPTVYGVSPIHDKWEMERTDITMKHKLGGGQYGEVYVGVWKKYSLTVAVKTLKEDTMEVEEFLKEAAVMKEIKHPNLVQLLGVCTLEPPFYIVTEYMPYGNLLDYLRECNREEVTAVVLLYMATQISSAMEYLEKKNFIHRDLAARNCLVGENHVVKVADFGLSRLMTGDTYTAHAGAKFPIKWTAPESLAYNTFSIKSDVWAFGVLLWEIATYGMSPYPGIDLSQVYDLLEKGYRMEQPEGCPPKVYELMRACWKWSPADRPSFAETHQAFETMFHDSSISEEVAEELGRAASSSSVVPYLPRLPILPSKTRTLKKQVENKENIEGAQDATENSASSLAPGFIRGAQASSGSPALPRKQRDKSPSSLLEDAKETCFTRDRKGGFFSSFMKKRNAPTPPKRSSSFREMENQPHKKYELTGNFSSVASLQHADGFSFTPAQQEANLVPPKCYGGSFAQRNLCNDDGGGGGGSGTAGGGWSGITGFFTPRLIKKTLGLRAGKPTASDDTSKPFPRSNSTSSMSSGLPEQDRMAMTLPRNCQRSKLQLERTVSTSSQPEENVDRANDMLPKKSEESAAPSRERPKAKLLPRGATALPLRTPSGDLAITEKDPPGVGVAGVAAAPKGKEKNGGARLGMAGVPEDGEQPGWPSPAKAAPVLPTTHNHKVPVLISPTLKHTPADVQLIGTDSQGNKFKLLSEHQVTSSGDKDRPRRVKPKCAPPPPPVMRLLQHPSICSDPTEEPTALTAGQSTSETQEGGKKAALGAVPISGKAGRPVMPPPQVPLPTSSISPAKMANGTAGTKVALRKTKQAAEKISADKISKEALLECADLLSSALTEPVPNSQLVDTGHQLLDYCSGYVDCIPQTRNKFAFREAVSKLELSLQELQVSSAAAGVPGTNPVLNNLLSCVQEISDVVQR
Receptor-interacting serine/threonine-protein kinase 2, sequence (O43353 whole entry): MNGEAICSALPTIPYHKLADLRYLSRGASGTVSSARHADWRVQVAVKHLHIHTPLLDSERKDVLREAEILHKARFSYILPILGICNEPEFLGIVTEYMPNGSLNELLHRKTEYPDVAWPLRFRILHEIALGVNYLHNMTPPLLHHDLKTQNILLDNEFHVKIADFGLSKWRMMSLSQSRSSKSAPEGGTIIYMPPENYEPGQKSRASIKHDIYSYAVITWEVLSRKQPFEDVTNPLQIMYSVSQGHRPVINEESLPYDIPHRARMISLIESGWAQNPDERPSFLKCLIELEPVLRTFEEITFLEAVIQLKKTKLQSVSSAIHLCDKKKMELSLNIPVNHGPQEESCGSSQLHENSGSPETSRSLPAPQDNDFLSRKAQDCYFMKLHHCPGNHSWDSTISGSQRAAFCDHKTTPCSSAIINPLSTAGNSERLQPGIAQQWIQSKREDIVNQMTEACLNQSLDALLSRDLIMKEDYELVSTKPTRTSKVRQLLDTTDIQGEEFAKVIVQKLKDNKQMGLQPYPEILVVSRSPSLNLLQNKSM

## CCN(CC)CCCCNc1ncc2cc(-c3cc(OC)cc(OC)c3)c(NC(=O)NC(C)(C)C)nc2n1
[1]
  % of control: 100%

## C=CC(=O)Nc1cccc(C(=O)Nc2ccc(Nc3cc(-c4[nH]c(SC)nc4C)ccn3)cc2)c1
[2]; at 1 µM
  % of control: 74%
[2]; at 5 µM
  % of control: 84%

## CC[C@@H]1[C@H](F)C(=O)N[C@@H]1COc1nccc2cc(C(N)=O)c(OC)cc12 [ZIMLOVISERTIB]
[3]; at 0.01 µM
  % of inhibition: -12.3%
[3]; at 0.04 µM
  % of inhibition: -11.2%
[3]; at 0.2 µM
  % of inhibition: 2.2%
[3]; at 1 µM
  % of inhibition: -12.7%
[3]; at 5 µM
  % of inhibition: 14.3%
[4]; at 0.01 µM
  % of inhibition: 12.2%
[4]; at 0.04 µM
  % of inhibition: 0%
[4]; at 0.2 µM
  % of inhibition: 20%
[4]; at 1 µM
  % of inhibition: 0.8%
[4]; at 5 µM
  % of inhibition: -3.6%
[5]
  % of inhibition: -2.22%

## C=CC(=O)Nc1cc(-n2c(=O)ccc3cnc4ccc(-c5ccc(NS(C)(=O)=O)cc5)cc4c32)ccc1C
[6]; at 1 µM
  % of control: 69%
[6]; at 10 µM
  % of control: 50%
